In publication PMC6697720, “Saturation of acyl chains converts cardiolipin from an antagonist to an activator of Toll-like receptor-4” (Cellular and Molecular Life Sciences: CMLS, 2019):

Legend:
human TLR4/MD2/CD14 = molecular target: T1, human TLR4/MD2/CD14 (Homo sapiens, UniProt O00206+Q9Y6Y9); experiment: Inhibition of LPS-induced NF-κB luciferase reporter in HEK293 cells transfected with human TLR4/MD2/CD14; assay type: cell-based; conditions: for inhibition of LPS-induced signaling (LPS dose-response, 0 to 1000 ng/mL), mode of action: 1 h CL pre-incubation
T1 construct: expressed in transfected cells; host or cells: HEK293 (ATCC CRL1573), transient transfection with jetPEI
Description: (§1) Cells were seeded at 4 × 10^4 cells/mL in 96-well plates (200 μL/well) and transiently transfected 4 days later. Expression vectors containing an NF-κB transcription reporter vector-encoding firefly luciferase (10 ng/well pNF-κB-luc from Clontech), and a constitutively active reporter vector-encoding Renilla luciferase (5 ng/well phRG-TK; Promega), together with empty vector (pcDNA3.1 from Invitrogen Cat. N. V79020) and cDNA encoding human membrane CD14 (3 ng/well) and human or murine TLR4 and MD2 (3 ng/well) were mixed with jetPEI (Polyplus transfection Cat.N. 101-10N) and incubated with cells according to the manufacturer’s instructions.
(§2) After treatment supernatants were discarded, cells were washed with PBS and lysed with passive lysis buffer (Promega Cat.N. E1941). Luciferase and Renilla activity on cell lysates were quantified on a BioTek Synergy HT microplate reader using home-made luciferase reagent (20 mM Tricine, 2.67 mM MgSO4·7H2O, 0.265 mM (MgCO3)4Mg(OH)2·5H2O, 0.1 mM EDTA, 33.3 mM DTT, 530 μM ATP, 270 μM Acetyl Coenzyme A (Lithium salt), 470 μM luciferin (Biosynth), pH 7.8, diluted two times in water before use), or coelenterazine (Biosynth) dissolved in ethanol at 1 mg/mL and diluted 500 times in PBS before use as previously described. Firefly and Renilla luciferase activity on cell lysates were normalized, and data were expressed as fold induction as compared to unstimulated conditions.
In contrast to C16:0 and C18:0, C14:0 CL acted as an agonist in murine but not human cells (Fig. 3), a property similar to that of the LPS variant lipid IVa. to establish whether C14:0, like lipid IVa, is a weak human TLR4 antagonist, we tested the ability of all saturated CLs to inhibit signaling induced by LPS over a range of concentrations. For each CL, cells transfected with human TLR4/MD2/CD14 were pre-incubated with medium alone or two different CL concentrations for 1 h, and then washed and incubated for 6 h with increasing amounts of LPS (from 0 to 1000 ng/mL). […] The dose–response curve of LPS was shifted to the right.
(§3) Fig. 6 C14:0 is a competitive human TLR4 antagonist. HEK293 cells were transfected with plasmids encoding hTLR4, hMD2, and hCD14 together with a luciferase reporter plasmid dependent on NF-κB activation and a constitutively active reporter vector-encoding renilla luciferase. Two days after transfection, cells were incubated for 1 h with medium alone or the indicated amount of CLs, then washed and incubated 6 h with increasing amount of LPS. Luciferase and renilla were then quantified in cell lysate, and normalized and reported here as fold induction as compared to control. Each bar represents the mean ± standard deviation of three biological replicates (n = 3). Graphs are representative of at least three independent experiments
as §3, with “7 Unsaturated cardiolipins are” for “6 C14:0 is a”, “antagonists.” for “antagonist.”, “CLs, and” for “CLs,”
To quantify and compare the potency of CLs as inhibitors, we determined IC50 values in HEK293 cells transfected with human TLR4/MD2/CD14, for each of the antagonists (Fig. 8 and Table 1). […]

immortalized BMDMs = experiment: TNF-α secretion in immortalized BMDMs (WT or TLR4-KO) incubated with CL or LPS; assay type: cell-based, murine; conditions: CL alone, overnight, immortalized BMDM
Description: Immortalized BMDM were seeded the day before the experiment at 5 × 10^5 cells/mL in 48-well plates (500 μL/well).
After stimulation, supernatants were collected, centrifuged, and assayed for cytokine secretion, while cells were assayed for viability.
TNF-α and IP-10 were quantified in cell supernatants using DuoSet ELISA kits from R&D Systems and human IL-1β using Instant ELISA™ Kit from Invitrogen, according to the manufacturer’s instructions. Absorbance was read with a BioTek Synergy HT Microplate Readers.
(§4) Fig. 3 Saturated but not unsaturated CLs have pro-inflammatory properties. a RAW-Blue™ cells were incubated overnight with the indicated amount of CL or LPS, supernatants were collected, and NF-κB activation quantified via Quanti-Blue™ test and reported here as fold induction as compared to control. Unpaired t test: differences with respect to the control (Ctrl) are not significant if p > 0.05 (no symbol); *p ≤ 0.0007. b Immortalized BMDM cells were incubated overnight with the indicated amount of CL or LPS; supernatants were collected and TNF-α quantified via ELISA assay. c, d Primary human monocytes were incubated overnight with the indicated amount of CL or LPS with or without the NLRP3 inhibitor MCC950, supernatants were collected, and TNF-α and IL-1β were quantified via ELISA assay. Graphs are representative of experiments from six different donors. Unpaired t test: differences with respect to the control (Ctrl) are not significant if p > 0.05 (no symbol); *p ≤ 0.021. Each bar represents the mean + standard deviation of three biological replicates (n = 3). Graphs are representative of at least three independent experiments
(§5) Fig. 4 Saturated CLs are TLR4 agonists. a HEK293 cells were transfected with plasmids encoding murine TLR4, MD2, and CD14 (mTLR4), human TLR4, MD2, and CD14 (hTLR4) or with empty pcDNA3.1 plasmid, MD2 and CD14 (w/o TLR) together with a luciferase reporter plasmid dependent on NF-κB activation and a constitutively active reporter vector-encoding renilla luciferase. Two days after transfection, cells were incubated for 6 h with medium alone (Ctrl) or the indicated amount of CLs or LPS. Luciferase and renilla were quantified in cell lysate, normalized and reported here as fold induction as compared to control. Unpaired t test: differences compared to the control are not significant if p > 0.05(no symbol); *p ≤ 0.005. b WT and TLR4-KO iBMDM cells were incubated overnight with medium (c), LPS or C14:0 CL. For each condition, mTNF-α was measured by ELISA assay. Unpaired t test: differences with respect to the control are not significant if p > 0.05(no symbol); *p ≤ 0.0001. Each bar represents the mean + standard deviation of three biological replicates (n = 3). Graphs are representative of at least three independent experiments

RAW-Blue cells = experiment: NF-κB activation (SEAP, Quanti-Blue) by CL or LPS in RAW-Blue cells; assay type: cell-based, murine; conditions: CL alone, overnight
Description: RAW-Blue™ cells were seeded the day before the experiment at 5 × 10^5 cells/mL in 48-well plates (500 μL/well).
These cells express a secreted embryonic alkaline phosphatase (SEAP) when NF-κB is activated. NF-κB activation was measured by measuring the alkaline phosphatase produced by RAW-Blue™ cells using the Quanti-Blue™ reagent (InvivoGen), according to the manufacturer’s instructions.
as §4

[1] = molecular target: T2, human TLR4, MD2, and CD14 (Homo sapiens, UniProt O00206+Q9Y6Y9); experiment: NF-κB luciferase reporter activation by CLs in HEK293 cells transfected with human TLR4, MD2 and CD14; assay type: cell-based
T2 construct: expressed in transfected cells; host or cells: HEK293 (ATCC CRL1573), transient transfection with jetPEI
Description: as §1, §2
The first signaling event of these pathways is NF-κB activation through TLR4 activation. To investigate how the individual CD14, TLR4, and MD2 proteins contribute to the responses of cells to CL, we used the HEK transfection model where we can control which protein (including from different species) may be added to the cells and their contribution to CL activation of Nf-κB [21, 30, 31]. We transfected HEK293 cells with human or murine CD14 and MD2 with or without TLR4 and incubated them with saturated CLs for 6 h (Fig. 4a). All three saturated CLs activated murine TLR4. By contrast, only C16:0 and C18:0 activated the human receptor. To further confirm the role of TLR4, we compared TNF-α secretion induced by C14:0 CL in wild-type (WT) or TLR4 knock out (TLR4 KO) immortalized BMDMs. Both LPS and C14:0 CL induced TNF-α secretion in WT but not in TLR4-KO BMDMs (Fig. 4b). TLR4-KO BMDMs were normally responsive to TLR2 ligand Pam3CSK4 (data not shown).
as §5, with “Graphs are representative of at least three independent experiments” left out

[2] = HEK293 hTLR4/hMD2/hCD14, 1 h CL, washed, 6 h LPS, Prism fit of Fig. 8 data

T1 sequence (O00206 24-839): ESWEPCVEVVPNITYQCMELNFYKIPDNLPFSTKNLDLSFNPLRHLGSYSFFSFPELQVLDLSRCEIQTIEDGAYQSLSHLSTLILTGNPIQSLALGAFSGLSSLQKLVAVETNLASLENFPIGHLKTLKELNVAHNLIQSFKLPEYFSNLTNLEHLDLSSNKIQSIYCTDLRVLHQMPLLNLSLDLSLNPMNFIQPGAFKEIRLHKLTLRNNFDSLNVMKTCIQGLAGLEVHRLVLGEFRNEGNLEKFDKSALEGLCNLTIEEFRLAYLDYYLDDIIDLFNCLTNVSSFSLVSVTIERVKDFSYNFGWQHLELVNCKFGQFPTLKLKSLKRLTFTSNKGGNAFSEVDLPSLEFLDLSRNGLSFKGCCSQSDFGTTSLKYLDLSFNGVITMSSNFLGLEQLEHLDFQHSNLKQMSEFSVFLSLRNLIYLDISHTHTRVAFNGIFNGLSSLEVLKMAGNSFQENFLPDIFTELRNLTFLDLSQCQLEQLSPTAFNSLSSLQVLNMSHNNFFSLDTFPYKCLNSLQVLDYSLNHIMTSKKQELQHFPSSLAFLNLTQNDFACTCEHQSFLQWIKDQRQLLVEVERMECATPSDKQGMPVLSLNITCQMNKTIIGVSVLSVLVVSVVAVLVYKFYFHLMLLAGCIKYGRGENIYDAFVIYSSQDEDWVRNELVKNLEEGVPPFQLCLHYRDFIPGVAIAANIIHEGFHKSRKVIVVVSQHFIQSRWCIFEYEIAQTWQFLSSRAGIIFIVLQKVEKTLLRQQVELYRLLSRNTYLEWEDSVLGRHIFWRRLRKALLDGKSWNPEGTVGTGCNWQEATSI
T1 sequence (Q9Y6Y9 19-160): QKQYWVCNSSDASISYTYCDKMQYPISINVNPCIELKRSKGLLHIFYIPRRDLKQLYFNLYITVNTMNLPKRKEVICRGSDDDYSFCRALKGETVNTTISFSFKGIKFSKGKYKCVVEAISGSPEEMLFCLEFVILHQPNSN
T2 sequence (O00206 24-839): as the sequence (O00206 24-839) above
T2 sequence (Q9Y6Y9 19-160): as the sequence (Q9Y6Y9 19-160) above

Row | inhibition of LPS-induced signaling (LPS dose-response, 0 to 1000 ng/mL), mode of action (human TLR4/MD2/CD14; washed, 6 h LPS) | IC50 (human TLR4/MD2/CD14; [2]) [nM] | IC50 (human TLR4/MD2/CD14; HEK293 human TLR4/MD2/CD14) [nM] | difference in potency between C14:1 and C18:1 (human TLR4/MD2/CD14; ratio of IC50 values, Table 1) [fold] | activation of human TLR4 (NF-κB) ([1]; 6 h incubation) | NF-κB induction in HEK293 cells transfected with TLR4 in the absence of CD14 or MD2 ([1]; hTLR4 without CD14 or without MD2, 6 h) | SMILES | TNF-α secretion (immortalized BMDMs) | NF-κB activation (RAW-Blue cells)
1 | competitive TLR4 antagonists | 33500 |  |  |  |  | CCCCCCCC/C=C\CCCCCCCC(=O)OC[C@H](COP(=O)(O)OCC(O)COP(=O)(O)OC[C@@H](COC(=O)CCCCCCC/C=C\CCCCCCCC)OC(=O)CCCCCCC/C=C\CCCCCCCC)OC(=O)CCCCCCC/C=C\CCCCCCCC (stereo partly shown) [C18:1 CL] | not | not
2 | competitive TLR4 antagonists | 77.9 | 77 | 400 |  |  | CCCC/C=C\CCCCCCCC(=O)OC[C@H](COP(=O)(O)OCC(O)COP(=O)(O)OC[C@@H](COC(=O)CCCCCCC/C=C\CCCC)OC(=O)CCCCCCC/C=C\CCCC)OC(=O)CCCCCCC/C=C\CCCC (stereo partly shown) [C14:1 CL] | not | not
3 | did not inhibit |  |  |  | activated | not induced | CCCCCCCCCCCCCCCC(=O)OC[C@H](COP(=O)(O)OCC(O)COP(=O)(O)OC[C@@H](COC(=O)CCCCCCCCCCCCCCC)OC(=O)CCCCCCCCCCCCCCC)OC(=O)CCCCCCCCCCCCCCC (stereo partly shown) [C16:0 CL] | induced | induced
4 | competitive TLR4 antagonists | 925 |  |  |  |  | CCCCCC/C=C\CCCCCCCC(=O)OC[C@H](COP(=O)(O)OCC(O)COP(=O)(O)OC[C@@H](COC(=O)CCCCCCC/C=C\CCCCCC)OC(=O)CCCCCCC/C=C\CCCCCC)OC(=O)CCCCCCC/C=C\CCCCCC (stereo partly shown) [C16:1 CL] | not | not
